Reference: patent publication US11091463B2, “Amide-substituted pyridinyltriazole derivatives and uses thereof” (BAYER PHARMA AKTIENGESELLSCHAFT, priority 2016, dated 2021)

Legend:
human V1a receptor = target: T1, human V1a receptor (Homo sapiens, UniProt P37288); assay: Cellular in vitro assay for vasopressin receptor activity, V1a receptor cell line (photoprotein luminescence); format: cell-based; settings: Table 1A, compounds of the invention; for ratio IC50 hV2/hV1a: selectivity ratio
T1 construct: expressed in transfected cells; host or cells: CHO K1 (ATCC), also stably transfected with a modified aequorin
Procedure: (§1) B-1. Cellular In Vitro Assay for Determining Vasopressin Receptor Activity
The identification of agonists and antagonists of the V1a and V2 vasopressin receptors from humans, rats and dogs as well as the quantification of the activity of the compounds of the invention is carried out using recombinant cell lines. These cell lines originally derive from a hamster's ovary epithelial cell (Chinese Hamster Ovary, CHO K1, ATCC: American Type Culture Collection, Manassas, Va. 20108, USA). The test cell lines constitutively express the human, rat or dog V1a or V2 receptors. In case of the Gαq-coupled V1a receptors, cells are also stably transfected with a modified form of the calcium-sensitive photoproteins aequorin (human and rat V1a) or obelin (dog V1a), which, after reconstitution with the cofactor coelenterazine, emit light when there are increases in free calcium concentrations [Rizzuto R, Simpson A W, Brini M, Pozzan T, Nature, 358, 325-327 (1992); Illarionov B A, Bondar V S, Illarionova V A, Vysotski E S, Gene, 153 (2), 273-274 (1995)]. The resulting vasopressin receptor cells react to stimulation of the recombinantly expressed V1a receptors by intracellular release of calcium ions, which can be quantified by the resulting photoprotein luminescence. The Gs-coupled V2 receptors are stably transfected into cell lines expressing the gene for firefly luciferase under control of a CRE-responsible promoter. Activation of V2 receptors induces the activation of the CRE-responsive promoter via cAMP increase, thereby inducing the expression of firefly luciferase. The light emitted by photoproteins of V1a cell lines as well as the light emitted by firefly luciferase of V2 cell lines corresponds to the activation or inhibition of the respective vasopressin receptor. The bioluminescence of the cell lines is detected using a suitable luminometer [Milligan G, Marshall F, Rees S, Trends in Pharmacological Sciences, 17, 235-237 (1996)].
Vasopressin V1a Receptor Cell Lines:
On the day before the assay, the cells are plated out in culture medium (DMEM/F12, 2% FCS, 2 mM glutamine, 10 mM HEPES, 5 μg/ml coelenterazine) in 384-well microtiter plates and kept in a cell incubator (96% humidity, 5% v/v CO2, 37° C.). On the day of the assay, test compounds in various concentrations are placed for 10 minutes in the wells of the microtiter plate before the agonist [Arg^8]-vasopressin at EC50 concentration is added. The resulting light signal is measured immediately in a luminometer.
Table 1A below lists individual IC50 values for the compounds of the invention (including racemic mixtures as well as separated enantiomers) that were obtained from cell lines transfected with the human V1a or V2 receptor: […]

human V2 receptor = target: T2, human V2 receptor (Homo sapiens, UniProt P30518); assay: Cellular in vitro assay for vasopressin receptor activity, V2 receptor cell line (CRE-luciferase); format: cell-based; settings: Table 1A; compounds of the invention; CHO cell line transfected with human V2 receptor, [Arg8]-vasopressin at EC50; read-out: IC50 hV2
T2 construct: expressed in transfected cells; host or cells: CHO K1 (ATCC) line expressing firefly luciferase under a CRE-responsive promoter
Procedure: as §1
The identification of agonists and antagonists of the V1a and V2 vasopressin receptors from humans, rats and dogs as well as the quantification of the activity of the compounds of the invention is carried out using recombinant cell lines. These cell lines originally derive from a hamster's ovary epithelial cell (Chinese Hamster Ovary, CHO K1, ATCC: American Type Culture Collection, Manassas, Va. 20108, USA). The test cell lines constitutively express the human, rat or dog V1a or V2 receptors. […] The resulting vasopressin receptor cells react to stimulation of the recombinantly expressed V1a receptors by intracellular release of calcium ions, which can be quantified by the resulting photoprotein luminescence. […] The bioluminescence of the cell lines is detected using a suitable luminometer [Milligan G, Marshall F, Rees S, Trends in Pharmacological Sciences, 17, 235-237 (1996)]. […]
On the day before the assay, the cells are plated out in culture medium (DMEM/F12, 2% FCS, 2 mM glutamine, 10 mM HEPES) in 384-well microtiter plates and kept in a cell incubator (96% humidity, 5% v/v CO2, 37° C.). […] Upon addition of the cell lysis reagent Triton™ and the substrate luciferin, luminescence of firefly luciferase is measured in a luminometer. […]

T1 sequence (P37288 whole entry): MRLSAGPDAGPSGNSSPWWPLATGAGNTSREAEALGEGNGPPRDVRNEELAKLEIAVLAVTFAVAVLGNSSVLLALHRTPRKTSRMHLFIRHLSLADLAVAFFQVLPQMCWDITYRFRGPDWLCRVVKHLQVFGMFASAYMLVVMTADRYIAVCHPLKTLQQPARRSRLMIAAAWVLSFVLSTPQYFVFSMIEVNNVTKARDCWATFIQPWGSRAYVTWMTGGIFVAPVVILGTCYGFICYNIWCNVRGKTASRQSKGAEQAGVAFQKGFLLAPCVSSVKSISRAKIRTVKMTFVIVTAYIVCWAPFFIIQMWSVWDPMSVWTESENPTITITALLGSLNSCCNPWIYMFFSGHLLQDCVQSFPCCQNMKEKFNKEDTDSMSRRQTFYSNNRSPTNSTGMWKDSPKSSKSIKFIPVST
T2 sequence (P30518 whole entry): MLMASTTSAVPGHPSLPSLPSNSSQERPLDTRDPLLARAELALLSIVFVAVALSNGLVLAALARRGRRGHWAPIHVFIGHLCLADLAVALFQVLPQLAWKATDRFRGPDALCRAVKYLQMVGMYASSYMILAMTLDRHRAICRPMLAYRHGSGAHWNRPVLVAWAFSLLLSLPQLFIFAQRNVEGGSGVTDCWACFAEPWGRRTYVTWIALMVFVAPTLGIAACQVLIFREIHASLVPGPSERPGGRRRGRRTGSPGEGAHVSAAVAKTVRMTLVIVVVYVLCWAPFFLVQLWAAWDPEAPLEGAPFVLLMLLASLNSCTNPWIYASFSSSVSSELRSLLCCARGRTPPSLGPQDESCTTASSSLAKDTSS

NC(=O)c1nc(Cn2nc(-c3ccc(Cl)cc3)n(C[C@@H](O)C(F)(F)F)c2=O)nn1-c1ncccc1Cl [Example 10, 3-({3-(4-Chlorophenyl)-5-oxo-4-[(2R)-3,3,3-trifluoro-2-hydroxypropyl]-4,5-dihydro-1H-1,2,4-triazol-1-yl}methyl)-1-(3-chloropyridin-2-yl)-1H-1,2,4-triazole-5-carboxamide]
ratio IC50 hV2/hV1a (human V1a receptor): 116.2

NC(=O)c1nc(Cn2nc(-c3ccc(Cl)cc3)n(C[C@@H](O)C(F)(F)F)c2=O)nn1-c1ncccc1C(F)(F)F [Example 11, 3-({3-(4-Chlorophenyl)-5-oxo-4-[(2R)-3,3,3-trifluoro-2-hydroxypropyl]-4,5-dihydro-1H-1,2,4-triazol-1-yl}methyl)-1-[3-(trifluoromethyl)pyridin-2-yl]-1H-1,2,4-triazole-5-carboxamide]
ratio IC50 hV2/hV1a (human V1a receptor): 196.8

NC(=O)c1nc(Cn2nc(-c3ccc(Cl)cc3)n(C[C@@H](O)C(F)(F)F)c2=O)nn1-c1cnccc1Cl [Example 12, 3-({3-(4-Chlorophenyl)-5-oxo-4-[(2R)-3,3,3-trifluoro-2-hydroxypropyl]-4,5-dihydro-1H-1,2,4-triazol-1-yl}methyl)-1-(4-chloropyridin-3-yl)-1H-1,2,4-triazole-5-carboxamide]
ratio IC50 hV2/hV1a (human V1a receptor): 249.3

NC(=O)c1nc(Cn2nc(-c3ccc(Cl)cc3)n(C[C@@H](O)C(F)(F)F)c2=O)nn1-c1cnccc1C(F)(F)F [Example 13, 3-({3-(4-Chlorophenyl)-5-oxo-4-[(2R)-3,3,3-trifluoro-2-hydroxypropyl]-4,5-dihydro-1H-1,2,4-triazol-1-yl}methyl)-1-[4-(trifluoromethyl)pyridin-3-yl]-1H-1,2,4-triazole-5-carboxamide]
ratio IC50 hV2/hV1a (human V1a receptor): 431.3

NC(=O)c1nc(Cn2nc(-c3ccc(Cl)cc3)n(CC(=O)C(F)(F)F)c2=O)nn1-c1ncccc1Cl [Example 14, 3-{[3-(4-Chlorophenyl)-5-oxo-4-(3,3,3-trifluoro-2-oxopropyl)-4,5-dihydro-1H-1,2,4-triazol-1-yl]methyl}-1-(3-chloropyridin-2-yl)-1H-1,2,4-triazole-5-carboxamide (ketone form) or 3-{[3-(4-chlorophenyl)-5-oxo-4-(3,3,3-trifluoro-2,2-dihydroxypropyl)-4,5-dihydro-1H-1,2,4-triazol-1-yl]methyl}-1-[2-(trifluoromethyl)phenyl]-1H-1,2,4-triazole-5-carboxamide (hydrate form)]
ratio IC50 hV2/hV1a (human V1a receptor): 20.0

NC(=O)c1nc(Cn2nc(-c3ccc(Cl)cc3)n(CC(=O)C(F)(F)F)c2=O)nn1-c1ncccc1Br [Example 15, 1-(3-Bromopyridin-2-yl)-3-{[3-(4-chlorophenyl)-5-oxo-4-(3,3,3-trifluoro-2-oxopropyl)-4,5-dihydro-1H-1,2,4-triazol-1-yl]methyl}-1H-1,2,4-triazole-5-carboxamide (ketone form) or 1-(3-Bromopyridin-2-yl)-3-{[3-(4-chlorophenyl)-5-oxo-4-(3,3,3-trifluoro-2,2-dihydroxypropyl)-4,5-dihydro-1H-1,2,4-triazol-1-yl]methyl}-1H-1,2,4-triazole-5-carboxamide (hydrate form)]
ratio IC50 hV2/hV1a (human V1a receptor): 47.2

NC(=O)c1nc(Cn2nc(-c3ccc(Cl)cc3)n(CC(=O)C(F)(F)F)c2=O)nn1-c1cnccc1Cl [Example 16, 3-{[3-(4-Chlorophenyl)-5-oxo-4-(3,3,3-trifluoro-2-oxopropyl)-4,5-dihydro-1H-1,2,4-triazol-1-yl]methyl}-1-(4-chloropyridin-3-yl)-1H-1,2,4-triazole-5-carboxamide (ketone form) or 3-{[3-(4-Chlorophenyl)-5-oxo-4-(3,3,3-trifluoro-2,2-dihydroxypropyl)-4,5-dihydro-1H-1,2,4-triazol-1-yl]-methyl}-1-(4-chloropyridin-3-yl)-1H-1,2,4-triazole-5-carboxamide (hydrate form)]
ratio IC50 hV2/hV1a (human V1a receptor): 53.6

NC(=O)c1nc(Cn2nc(-c3ccc(Cl)cc3)n(CC(=O)C(F)(F)F)c2=O)nn1-c1ncccc1C(F)(F)F [Example 17, 3-{[3-(4-Chlorophenyl)-5-oxo-4-(3,3,3-trifluoro-2-oxopropyl)-4,5-dihydro-1H-1,2,4-triazol-1-yl]methyl}-1-[3-(trifluoromethyl)pyridin-2-yl]-1H-1,2,4-triazole-5-carboxamide (ketone form) or 3-{[3-(4-Chlorophenyl)-5-oxo-4-(3,3,3-trifluoro-2,2-dihydroxypropyl)-4,5-dihydro-1H-1,2,4-triazol-1-yl]methyl}-1-[3-(trifluoromethyl)pyridin-2-yl]-1H-1,2,4-triazole-5-carboxamide (hydrate form)]
IC50 (human V1a receptor; CHO cell line transfected with human V1a receptor, [Arg8]-vasopressin at EC50, read-out: IC50 hV1a): 5.3 nM | ratio IC50 hV2/hV1a (human V1a receptor): 66.0 | IC50 (human V2 receptor): 350 nM
